Results from publication PMC12016938, “A small molecule PKCε inhibitor reduces hyperalgesia induced by paclitaxel or opioid withdrawal” (JCI Insight, 2025).
Values joined by “and” are separate entries in the source; they are usually repeats but may differ in a detail not shown here. Equal entries are not always repeated. Where two headings read alike, the source gives them in different places.

What was measured:
[1] = target: T1, PKCε (Homo sapiens, UniProt Q02156); experiment: PKCε activity with increasing ATP and CP612 (ATP competition); format: biochemical; set-up: His; AVI; made in house; host or cells: Sf9 cells; conditions: without CP612; 95% CI 2.23–7.61 μM
T1 sequence (Q02156 1-737): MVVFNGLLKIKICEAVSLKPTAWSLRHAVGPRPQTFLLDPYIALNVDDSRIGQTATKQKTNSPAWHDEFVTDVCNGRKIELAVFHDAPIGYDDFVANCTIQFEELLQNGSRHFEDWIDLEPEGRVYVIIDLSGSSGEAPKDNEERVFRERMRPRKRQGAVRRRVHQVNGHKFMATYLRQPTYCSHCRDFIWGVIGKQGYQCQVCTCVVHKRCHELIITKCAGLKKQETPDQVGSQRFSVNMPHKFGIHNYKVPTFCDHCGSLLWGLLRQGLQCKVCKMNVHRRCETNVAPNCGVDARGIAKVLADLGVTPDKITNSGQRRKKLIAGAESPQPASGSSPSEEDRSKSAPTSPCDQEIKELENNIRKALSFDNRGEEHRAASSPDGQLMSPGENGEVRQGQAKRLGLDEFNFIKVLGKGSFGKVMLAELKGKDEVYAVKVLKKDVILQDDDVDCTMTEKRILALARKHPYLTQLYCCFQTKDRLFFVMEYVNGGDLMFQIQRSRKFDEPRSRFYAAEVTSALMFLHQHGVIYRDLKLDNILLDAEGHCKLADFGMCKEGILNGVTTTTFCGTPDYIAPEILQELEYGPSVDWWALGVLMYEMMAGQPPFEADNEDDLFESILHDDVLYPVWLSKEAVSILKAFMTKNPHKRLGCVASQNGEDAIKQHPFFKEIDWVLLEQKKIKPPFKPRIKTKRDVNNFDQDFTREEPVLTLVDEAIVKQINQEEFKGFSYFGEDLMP
Experimental: Therefore, we assayed PKCε activity with increasing concentrations of ATP and in the presence of increasing concentrations of CP612.
Kinase assays. CP612 was assayed against His-AVI–tagged human PKCε (1 nM) produced in Sf9 cells, and ROCK1 (Carna Biosciences; 5 nM) using the Lance-FRET kinase assay system (PerkinElmer Revvity). Other human recombinant PKCs (SignalChem Biotech) were assayed in triplicate at the following concentrations: PKCβII 1.6 nM, PKCγ 500 pM, PKCδ 5 nM, PKCθ 500 pM, and PKCζ 500 pM. PKCs were incubated in a 15 μL reaction volume with kinase buffer (20 mM Tris-HCL [pH 7.4], 10 mM MgCl2, 0.25 mM EGTA, 0.1 mg/mL BSA, and 0.15% Triton X-100), 50 nM ULight-labeled CREBtide […] (PerkinElmer, TRF0107, Revvity), and test compound. […] after 60 minutes with 10 μL of 2.5× Stop Solution/Detection Mix containing 20 mM EDTA and 4 nM LANCE Ultra Europium anti–phospho-[…] peptide antibody (PerkinElmer, TRF0200, Revvity). After incubation at 27°C for another 60 minutes, phosphorylation was detected using a FlexStation 3 Microplate Reader (Molecular Devices) in LANCE TR-FRET mode (excitation = 340 nm, emission = 665 nm) and expressed as relative fluorescence units (RFU). The percentage of inhibition was calculated as: (signal without test compound − signal with test compound)/(signal without test compound − signal without ATP) × 100. The Z’ factor for this assay ranged between 0.72 and 0.86.

[2] = Plasma protein binding, equilibrium dialysis (RED); format: in vitro ADME, human; conditions: for % Recovery / recovery at 4 h, 10 µM: PBS + Plasma relative to starting concentration of 10 uM
Experimental: Plasma protein binding. Binding of CP612 to human plasma proteins was measured by equilibrium dialysis using a Rapid Equilibrium Dialysis (RED) Device (Thermo Fisher Scientific). The device uses plates with wells preloaded with equilibrium dialysis membrane inserts, each of which includes 2 side-by-side chambers separated by a dialysis membrane. […] All compounds were tested in triplicate. […] A total of 200 μL of diluted test compound was then added to the plasma chambers of triplicate wells of a 48-sample RED plate (Thermo Fisher Scientific). In total, 400 μL of 0.1M PBS buffer were added to each buffer chamber. The plate was sealed with adhesive foil and incubated at 37°C with shaking for 4 hours, after which 30 μL were removed from each chamber and diluted with either 30 μL of plasma (for buffer chamber samples) or 30 μL of 0.1M PBS (for plasma chamber samples). Samples were extracted with 3 volumes of acetonitrile, centrifuged at 16,000g at 4°C for 10 minutes, and analyzed by LC-MS to calculate the amount of drug in each chamber. The percentage of free compound was calculated as the concentration in the buffer chamber/concentration in the plasma chamber × 100%. The percentage of protein-bound compound was calculated as 100% – the percentage of free compound.

[3] = Plasma stability; conditions: for % Absolute: human plasma (hPL); for half-life: human
Experimental: Plasma stability. To determine in vitro plasma stability, we calculated in vitro plasma half-life. We incubated test substances (0.6 μL) with 60 μL human plasma (BioIVT) in quadruplicate at 37°C.

[4] = Microsomal clearance; conditions: for half-life at 8.5 μM: both, human, microsomes; for % Absolute: human liver microsomes (HLM)
Experimental: Microsomal clearance. To determine if CP612 was a likely substrate for first-pass hepatic metabolism, we measured the stability of CP612 in the presence of human liver microsomes (BioIVT) pooled from over 100 male and female individuals. […] Test compounds were diluted to 10 μM in 0.1M PBS, and then 51 μL were dispensed in quadruplicate into wells of a 96-well plate, which was shaken at 600 rpm at 37°C. Reactions were initiated by adding 1.5 μL of microsomes (20 mg/mL) to the wells and 3 minutes later adding 7.5 μL of 8 mM NADPH (1 mM final concentration). Samples incubated without NADPH were used as negative controls.

[5] = (Corrected concentration in PBS / Corrected concentration in Plasma) * 100, individual replicates
[6] = human, individual replicates, read-out: % Recovery
[7] = human, mean of replicates, read-out: % Recovery, Mean
[8] = time 0 min, individual replicates
[9] = time 15 min, individual replicates
[10] = time 30 min, individual replicates
[11] = time 60 min, individual replicates

## Nc1ncnc2c1ncn2[C@@H]1O[C@H](COP(=O)(O)OP(=O)(O)OP(=O)(O)O)[C@@H](O)[C@H]1O [ATP]
[1]
  EC50: 4.2 µM

## COCCc1ccc(OCC(O)CNC(C)C)cc1 (stereo not shown) [Metoprolol, metoprolol]
[2]; [5]
  % Free: 91.52%
[2]; individual replicates
  % Recovery: 70.00% and 78.51%
  % Bound: 8.48% and 10.85%
[2]; [6]
  recovery at 4 h, 10 µM: 66.7%
[2]; [7]
  recovery at 4 h, 10 µM: 71.8%

## CCN(CC)CCOC(=O)c1ccc(N)cc1 [Procaine, reference compound]
[3]; [8]
  % Absolute: 122.69% and 106.84% and 107.17% and 113.76%
[3]; [9]
  % Absolute: 0.17% and 0.32% and 0.18%
[3]; [10]
  % Absolute: 0.00%
[3]; [11]
  % Absolute: 0.00%
[3]; time 180 min, individual replicates
  % Absolute: 0.00%
[3]; human plasma, 37°C
  Plasma stability Cl: 25.29 ± 1.35 µL/min
[3]; human plasma, individual replicates
  Cl (clearance): 26.280 and 23.303 and 25.557 and 26.005
[3]; human plasma, individual replicates, time axis in min, in min
  t1/2 (half life): 1.785 and 1.627 and 1.599
[3]; human plasma, Plasma stability t½ (min), 37°C
  half-life: 1.65 ± 0.09 min
[3]; plasma, t1/2 (half life), Mean, human plasma, mean of replicates, time axis in min
  half-life: 1.65 min
[3]; plasma, t1/2 (half life), human plasma, individual replicates, time axis in min
  half-life: 1.58 min

## C[C@]12CC[C@H]3[C@@H](CCC4=CC(=O)CC[C@@]43C)[C@@H]1CC[C@@H]2O [Testosterone]
[2]; [5]
  % Free: 6.33% and 6.14%
[2]; individual replicates
  % Recovery: 74.81% and 77.04%
  % Bound: 93.67% and 93.86%
[2]; PBS compartment, relative to starting concentration of 10 uM, individual replicates
  % Absolute (Sample_PBS): 4.21% and 4.46% and 4.45%
[2]; human plasma, individual replicates, read-out: % Bound (converted)
  fraction unbound at 4 h, 10 μM: 0.0593
[2]; [6]
  recovery at 4 h, 10 µM: 75.2%
[2]; [7]
  recovery at 4 h, 10 µM: 75.7%
[2]; human, plasma, (Corrected concentration in PBS / Corrected concentration in Plasma) * 100, individual replicates, read-out: % Free
  fraction unbound at 4 h, 10 μM: 0.0593
[2]; human, plasma, human plasma, 37°C, 4 hours, read-out: Plasma protein binding (% bound) (converted)
  fraction unbound at 4 h, 10 μM: 0.0613
[2]; human, plasma, mean of replicates, read-out: % Bound, Mean (converted)
  fraction unbound at 4 h, 10 μM: 0.0613
[2]; human, plasma, mean of replicates, read-out: % Free, Mean
  fraction unbound at 4 h, 10 μM: 0.0613
[2]; plasma compartment, relative to starting concentration of 10 uM, individual replicates
  % Absolute (Sample_Plasma): 70.98% and 70.35% and 72.59%
[4]; HLM, individual replicates, time axis in min
  t1/2 (half life): 14.3079 and 11.3615 and 11.8498
[4]; Microsomal clearance t½ (min), human liver microsomes, NADPH
  half-life at 8.5 μM: 12.7 ± 1.37 min
[4]; t1/2 (half life), HLM, individual replicates, time axis in min
  half-life at 8.5 μM: 13.4 min
[4]; t1/2 (half life), Mean, HLM, mean of replicates, time axis in min
  half-life at 8.5 μM: 12.7 min
[4]; [8]
  % Absolute: 122.56% and 99.88% and 106.38% and 105.61%
[4]; time 5 min, individual replicates
  % Absolute: 82.74% and 96.20% and 86.80% and 92.26%
[4]; [9]
  % Absolute: 59.56% and 70.78%
[4]; [10]
  % Absolute: 54.15% and 32.42% and 34.78% and 45.15%
[4]; time 60 min, -NADPH, individual replicates
  % Absolute: 125.64% and 123.20% and 118.26% and 117.65%
[4]; [11]
  % Absolute: 5.58% and 4.76% and 2.71% and 3.01%
[4]; human liver microsomes, NADPH
  Microsomal clearance Cl: 109.81 ± 11.69 µL/min
